The text below walks through data of US9067898B1, “Isothiazole derivatives as GPR120 agonists for the treatment of type II diabetes” (Janssen Pharmaceutica NV, priority 2014, dated 2015).

This experiment addresses T1, Human GPR120 short form (Homo sapiens, UniProt Q5NUL3).
T1 construct: expressed in transfected cells
T1 sequence (Q5NUL3 1-361): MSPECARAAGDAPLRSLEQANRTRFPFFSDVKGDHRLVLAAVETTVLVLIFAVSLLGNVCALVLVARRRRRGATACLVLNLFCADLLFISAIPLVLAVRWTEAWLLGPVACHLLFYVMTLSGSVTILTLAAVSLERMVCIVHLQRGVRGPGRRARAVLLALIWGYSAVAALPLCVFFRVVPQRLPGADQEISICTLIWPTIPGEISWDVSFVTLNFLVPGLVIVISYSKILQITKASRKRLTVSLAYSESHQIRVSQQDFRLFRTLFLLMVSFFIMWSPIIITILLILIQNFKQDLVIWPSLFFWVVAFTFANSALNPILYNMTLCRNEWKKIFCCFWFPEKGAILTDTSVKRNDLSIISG
The experiment in a line: Human GPR120 calcium flux assay (FLIPR), Procedure Calcium A. Format: cell-based. Particulars: HEK-293 cells expressing human GPR120 short form, 2500 cells/well; read-out: GPR120 Ca2+ Assay A EC50. The procedure, abridged: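 HEK293 cells stably expressing the short isoform (NM_001195755.1), 2500/well, starved 1 h, then loaded with Fluo-4 NW plus probenecid (30 min 37 °C, 15 min RT). Compound solutions 0.012–100 μM, 0.2% DMSO final; FLIPR read 300 s after addition. EC50 from Fmax−Fmin fitted to variable-slope sigmoid (Hill <2).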
Consider “3-(4-[[3-(4-chlorophenyl)-5-(trifluoromethyl)-1,2-thiazol-4-yl]methoxy]-3-methylphenyl)propanoic acid [Cpd 235]”, for which the concentration giving a half-maximal response (EC50) stood at 50 nM.
For “3-(4-[[3-(4-ethylphenyl)-5-(trifluoromethyl)-1,2-thiazol-4-yl]methoxy]-1-benzothiophen-7-yl)propanoic acid [Cpd 92]” the value was 50 nM; for “3-(4-[[3-(4-ethylphenyl)-5-(trifluoromethyl)-1,2-thiazol-4-yl]methoxy]-3,5-difluorophenyl)propanoic acid [Cpd 70]”, 30 nM; for `CCc1ccc(-c2cc(F)sc2COc2ccc(CCC(=O)O)c(C)c2C)cc1` [Cpd 1, 3-(4-[[3-(4-ethylphenyl)-5-fluorothiophen-2-yl]methoxy]-2,3-dimethylphenyl)propanoic acid], 24 nM.
For `Cc1c(CCC(=O)O)ccc(OCc2sc(F)cc2-c2ccc(Cl)cc2)c1C` [Cpd 3, 3-(4-((3-(4-chlorophenyl)-5-fluorothiophen-2-yl)methoxy)-2,3-dimethylphenyl)propanoic acid] the value was 49 nM; for `OCCCc1cc(F)c(OCc2c(-c3ccc4c(c3)OCO4)csc2C(F)(F)F)c(F)c1` [Cpd 37, 3-(4-((4-(benzo[d][1,3]dioxol-5-yl)-2-(trifluoromethyl)thiophen-3-yl)methoxy)-3,5-difluorophenyl)propan-1-ol], 94 nM.
Regarding `Cc1ccc(-c2nsc(C(F)(F)F)c2COc2c(F)cc(CCC(=O)O)cc2F)c(F)c1` [Cpd 65, 3-(3,5-difluoro-4-[[3-(2-fluoro-4-methylphenyl)-5-(trifluoromethyl)-1,2-thiazol-4-yl]methoxy]phenyl)propanoic acid], the concentration for a half-maximal effect (EC50) worked out at 13 nM.
For `O=C(O)CCc1cc(F)c(OCc2c(-c3ccc(Cl)c(F)c3)nsc2C(F)(F)F)c(F)c1` [Cpd 67, 3-(4-((3-(4-chloro-3-fluorophenyl)-5-(trifluoromethyl)isothiazol-4-yl)methoxy)-3,5-difluorophenyl)propanoic acid] the value was 25 nM; for `O=C(O)CCc1cc(F)c(OCc2c(C3CCCC3)nsc2C(F)(F)F)c(F)c1` [Cpd 71, 3-(4-[[3-cyclopentyl-5-(trifluoromethyl)-1,2-thiazol-4-yl]methoxy]-3,5-difluorophenyl)propanoic acid], 37 nM; for `CCc1ccc(-c2nsc(C(F)(F)F)c2COc2ccc(CCC(=O)O)c(F)c2F)cc1` [Cpd 73, 3-(4-((3-(4-ethylphenyl)-5-(trifluoromethyl)isothiazol-4-yl)methoxy)-2,3-difluorophenyl)propanoic acid], 41 nM.
With `O=C(O)CCc1cc(F)c(OCc2c(-c3ccc(Cl)cc3F)nsc2C(F)(F)F)c(F)c1` [Cpd 74, 3-(4-((3-(4-chloro-2-fluorophenyl)-5-(trifluoromethyl)isothiazol-4-yl)methoxy)-3,5-difluorophenyl)propanoic acid] the figure was 42 nM.
For `Cc1ccc(-c2nsc(C(F)(F)F)c2COc2c(F)cc(CC(C)C(=O)O)cc2F)c(F)c1` (stereo not shown) [Cpd 76, 3-(3,5-difluoro-4-[[3-(2-fluoro-4-methylphenyl)-5-(trifluoromethyl)-1,2-thiazol-4-yl]methoxy]phenyl)-2-methylpropanoic acid] the value was 42 nM.
`O=C(O)CCc1cc(F)c(OCc2c(-c3ccc(Cl)cc3)nsc2C(F)(F)F)c(F)c1` [Cpd 79, 3-(4-[[3-(4-chlorophenyl)-5-(trifluoromethyl)-1,2-thiazol-4-yl]methoxy]-3,5-difluorophenyl)propanoic acid]: the concentration for a half-maximal effect (EC50) worked out at 51 nM.
For `CCc1ccc(-c2snc(Cl)c2COc2ccc(CCC(=O)O)c(C)c2C)cc1` [Cpd 85, 3-(4-[[3-chloro-5-(4-ethylphenyl)-1,2-thiazol-4-yl]methoxy]-2,3-dimethylphenyl)propanoic acid] the value was 56 nM; for `OCCCc1cc(F)c(OCc2c(-c3ccc4c(c3)OCO4)nsc2C(F)(F)F)c(F)c1` [Cpd 93, 3-(4-[[3-(2H-1,3-benzodioxol-5-yl)-5-(trifluoromethyl)-1,2-thiazol-4-yl]methoxy]-3,5-difluorophenyl)propan-1-ol], 71 nM; for `OCCCc1cc(F)c(OCc2c(-c3ccc(Cl)cc3)nsc2C(F)(F)F)c(F)c1` [Cpd 100, 3-(4-[[3-(4-chlorophenyl)-5-(trifluoromethyl)-1,2-thiazol-4-yl]methoxy]-3,5-difluorophenyl)propan-1-ol], 76 nM.
With `OCCCc1ccc(OCc2c(Cl)nsc2-c2ccc(Cl)cc2)c(F)c1F` [Cpd 102, 3-(4-((3-chloro-5-(4-chlorophenyl)isothiazol-4-yl)methoxy)-2,3-difluorophenyl)propan-1-ol] the figure was 78 nM; with `CC(Cc1cc(F)c(OCc2c(-c3ccc(Cl)cc3)nsc2C(F)(F)F)c(F)c1)C(=O)O` (stereo not shown) [Cpd 108, 3-(4-[[3-(4-chlorophenyl)-5-(trifluoromethyl)-1,2-thiazol-4-yl]methoxy]-3,5-difluorophenyl)-2-methylpropanoic acid], 89 nM; with `O=C(O)CCc1cc(F)c(OCc2c(-c3ccc(Cl)cc3)nsc2C(F)(F)F)c(F)c1F` [Cpd 116, 3-(4-((3-(4-chlorophenyl)-5-(trifluoromethyl)isothiazol-4-yl)methoxy)-2,3,5-trifluorophenyl)propanoic acid], 104 nM.
With `Cc1c(CCC(=O)O)ccc(OCc2c(-c3ccccc3)nsc2C(F)(F)F)c1C` [Cpd 134, 3-(2,3-dimethyl-4-[[3-phenyl-5-(trifluoromethyl)-1,2-thiazol-4-yl]methoxy]phenyl)propanoic acid] the figure was 133 nM.
Take `O=C(O)CCc1cc(F)c(OCc2c(-c3ccc(Cl)c(F)c3)nsc2C(F)(F)F)c(F)c1F` [Cpd 138, 3-(4-((3-(4-chloro-3-fluorophenyl)-5-(trifluoromethyl)isothiazol-4-yl)methoxy)-2,3,5-trifluorophenyl)propanoic acid]: the EC50 was 137 nM.
In the case of `Cc1c(CCC(=O)O)ccc(OCc2c(-c3ccc(Cl)cc3)nsc2C(F)(F)F)c1C` [Cpd 142, 3-(4-((3-(4-chlorophenyl)-5-(trifluoromethyl)isothiazol-4-yl)methoxy)-2,3-dimethylphenyl)propanoic acid], the EC50 is 155 nM.
For `O=C(O)CCc1c(F)c(F)c(OCc2c(-c3ccc(Cl)cc3)nsc2C(F)(F)F)c(F)c1F` [Cpd 152, 3-(4-((3-(4-chlorophenyl)-5-(trifluoromethyl)isothiazol-4-yl)methoxy)-2,3,5,6-tetrafluorophenyl)propanoic acid] the value was 173 nM; for `O=C(O)CCc1cc(F)c(OCc2c(-c3ncc(Cl)cc3F)nsc2C(F)(F)F)c(F)c1` [Cpd 153, 3-(4-((3-(5-chloro-3-fluoropyridin-2-yl)-5-(trifluoromethyl)isothiazol-4-yl)methoxy)-3,5-difluorophenyl)propanoic acid], 175 nM; for `CCc1cc(CCC(=O)O)ccc1OCc1c(-c2ccc(Cl)cc2)nsc1C(F)(F)F` [Cpd 162, 3-(4-[[3-(4-chlorophenyl)-5-(trifluoromethyl)-1,2-thiazol-4-yl]methoxy]-3-ethylphenyl)propanoic acid], 202 nM.
Turning to `Cc1c(CCC(=O)O)ccc(OCc2c(-c3ncc(Cl)cc3F)nsc2C(F)(F)F)c1C` [Cpd 180, 3-(4-((3-(5-chloro-3-fluoropyridin-2-yl)-5-(trifluoromethyl)isothiazol-4-yl)methoxy)-2,3-dimethylphenyl)propanoic acid], the EC50 was 270 nM.
For the compound `Cc1ccccc1-c1snc(Cl)c1COc1c(F)cc(CCC(=O)O)cc1F` [Cpd 193, 3-(4-[[3-chloro-5-(2-methylphenyl)-1,2-thiazol-4-yl]methoxy]-3,5-difluorophenyl)propanoic acid], the 50% effective concentration (EC50) is 344 nM.
For the compound `OCC#Cc1cc(F)c(OCc2c(-c3ccc(Cl)cc3)nsc2C(F)(F)F)c(F)c1` [Cpd 213, 3-(4-[[3-(4-chlorophenyl)-5-(trifluoromethyl)-1,2-thiazol-4-yl]methoxy]-3,5-difluorophenyl)prop-2-yn-1-ol], the concentration giving a half-maximal response (EC50) was 603 nM.
